Experimental data taken from patent US20250263383A1, “NOVEL INHIBITORS OF GUANOSINE MONOPHOSPHATE SYNTHETASE AS THERAPEUTIC AGENTS” (University of Southern California, priority 2018, published 2025).

Tests used:
[1] = test system: UO-31 cells; assay: Sulforhodamin B viability assay; format: cell-based; conditions: UO-31, Renal Cancer; negative values represent cell mortality percentage
[2] = test system: HT29 cells; assay: Sulforhodamin B viability assay; format: cell-based; conditions: HT29, Colon Cancer; negative values represent cell mortality percentage
[3] = test system: SK-MEL-5 cells; assay: Sulforhodamin B viability assay; format: cell-based; conditions: SK-MEL-5, Melanoma; negative values represent cell mortality percentage
[4] = test system: eight distinct cancer cell lines; assay: Sulforhodamin B viability assay, all cell lines; format: cell-based; conditions: across all the eight cell lines tested
[5] = test system: BT-549 cells; assay: Sulforhodamin B viability assay; format: cell-based; conditions: BT-549, Breast Cancer; negative values represent cell mortality percentage
[6] = test system: OVCAR-5 cells; assay: Sulforhodamin B viability assay; format: cell-based; conditions: OVCAR-5, Ovarian Cancer; negative values represent cell mortality percentage
[7] = test system: SF-539 cells; assay: Sulforhodamin B viability assay; format: cell-based; conditions: SF-539, CNS Cancer; negative values represent cell mortality percentage
[8] = test system: NCI-H23 cells; assay: Sulforhodamin B viability assay; format: cell-based; conditions: NCI-H23, Non-Small Cell Lung Cancer; negative values represent cell mortality percentage
[9] = test system: HL-60(TB) cells; assay: Sulforhodamin B viability assay; format: cell-based; conditions: Leukemia, negative values represent cell mortality percentage
[10] = biological target: recombinant human GMPS (Homo sapiens (Human), UniProt P49915); assay: enzymatic assay against recombinant GMPS, UV absorbance at 290 nm; conditions: for IC50 against GMPS, in words: recombinant GMPS; for IC50: recombinant human GMPS
recombinant human GMPS, sequence (P49915 whole entry): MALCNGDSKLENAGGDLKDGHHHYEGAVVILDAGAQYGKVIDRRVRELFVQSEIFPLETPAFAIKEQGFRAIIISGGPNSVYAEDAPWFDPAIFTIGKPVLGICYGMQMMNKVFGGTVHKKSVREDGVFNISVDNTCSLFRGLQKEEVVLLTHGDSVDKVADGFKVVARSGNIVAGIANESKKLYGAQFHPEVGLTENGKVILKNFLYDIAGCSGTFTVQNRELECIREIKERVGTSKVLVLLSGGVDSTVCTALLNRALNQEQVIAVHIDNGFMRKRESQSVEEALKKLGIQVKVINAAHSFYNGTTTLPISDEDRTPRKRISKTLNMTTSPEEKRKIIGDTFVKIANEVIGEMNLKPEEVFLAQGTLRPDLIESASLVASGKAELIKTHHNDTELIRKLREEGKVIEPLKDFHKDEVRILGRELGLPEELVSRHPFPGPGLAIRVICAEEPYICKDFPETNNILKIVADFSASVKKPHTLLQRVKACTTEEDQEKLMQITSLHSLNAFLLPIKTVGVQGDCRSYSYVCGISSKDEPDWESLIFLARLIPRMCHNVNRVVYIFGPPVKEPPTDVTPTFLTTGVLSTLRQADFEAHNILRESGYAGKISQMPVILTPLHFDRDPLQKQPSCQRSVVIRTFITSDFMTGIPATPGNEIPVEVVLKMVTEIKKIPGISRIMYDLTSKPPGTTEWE
Procedure: The potency of the five compounds was tested against recombinant GMPS in an enzymatic assay by monitoring UV absorbance at 290 nm and by determining an IC50.

SMILES: C#CCOc1cccc(Nc2ncnc3ccc(NC(=O)CCl)cc23)c1 [Compound 1, 2-chloro-N-(4-((3-(prop-2-yn-1-yloxy)phenyl)amino)quinazolin-6-yl) acetamide]
- Cell survival [1]: −87.8%
- Cell survival [2]: −78.6%
- Cell survival [3]: −92.8%
- cell death [4]: > 50%
- Cell survival [5]: −68.9%
- Cell survival [6]: −70.1%
- Cell survival [7]: −86.6%
- Cell survival [8]: −66.8%
- Cell survival [9]: −58.4%

SMILES: C#CCOc1cccc(C(=O)Nc2cccc(NC(=O)CCl)c2)c1 [Compound 5, N-(3-(2-chloroacetamido)phenyl)-3-(prop-2-yn-1-yloxy)benzamide]
- IC50 against GMPS, in words [10]: less active
- IC50 [10]: > 1 µM

SMILES: COc1cccc(Nc2ncnc3ccc(NC(C)=O)cc23)c1 [Compound 3, N-(4-((3-methoxyphenyl)amino)quinazolin-6-yl) acetamide]
- IC50 against GMPS, in words [10]: less active
- IC50 [10]: > 1 µM
